According to PubChem BioAssay AID248 (DTP/NCI, 2004):
Where “and” joins values, the source holds several entries; their conditions need not be identical. Equal values may be shown once. Inconclusive results and toxic doses are left out. Cut-off read from the data, not from the text of the source: active = T/C of 150% or more; inactive = T/C below 125%. Peptide text beside a SMILES is read from it. * marks the point of attachment. ONp = O=[N+]([O-])c1ccc(O*)cc1; Tos = Cc1ccc(S(=O)(=O)*)cc1

Tested on: L1210 leukemia ip in BDF1 mice, survival T/C
Assay: NCI In Vivo Anticancer Drug Screen. Data for tumor model L1210 Leukemia (intraperitoneal) in B6D2F1 (BDF1) mice
Conditions: endpoint: mean survival time, higher = longer survival
Outline: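 Each compound was tested against a transplantable tumor grown in mice. The endpoint was survival, with treated animals benchmarked against vehicle controls as a simple ratio.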

[1] = dose: 100.0 mg/kg/injection, schedule: Q04DX003 (ip), vehicle: Klucel (hydroxypropylcellulose) (HPC)
[2] = dose: 200.0 mg/kg/injection, schedule: Q01DX009 (ip), vehicle: Klucel (hydroxypropylcellulose) (HPC)
[3] = dose: 200.0 mg/kg/injection, schedule: Q04DX003 (ip), vehicle: Klucel (hydroxypropylcellulose) (HPC)
[4] = dose: 400.0 mg/kg/injection, schedule: Q01DX009 (ip), vehicle: Klucel (hydroxypropylcellulose) (HPC)
[5] = dose: 400.0 mg/kg/injection, schedule: Q04DX003 (ip), vehicle: Klucel (hydroxypropylcellulose) (HPC)
[6] = dose: 0.5 mg/kg/injection, schedule: Q01DX001 (ip), vehicle: saline
[7] = dose: 1.0 mg/kg/injection, schedule: Q01DX001 (ip), vehicle: saline
[8] = dose: 100.0 mg/kg/injection, schedule: Q01DX001 (ip), vehicle: saline
[9] = dose: 200.0 mg/kg/injection, schedule: Q01DX001 (ip), vehicle: saline
[10] = dose: 75.0 mg/kg/injection, schedule: Q01DX001 (ip), vehicle: other
[11] = dose: 150.0 mg/kg/injection, schedule: Q01DX001 (ip), vehicle: other
[12] = dose: 300.0 mg/kg/injection, schedule: Q01DX001 (ip), vehicle: other
[13] = dose: 100.0 mg/kg/injection, schedule: Q01DX009 (ip), vehicle: saline
[14] = dose: 100.0 mg/kg/injection, schedule: Q04DX003 (ip), vehicle: saline

Measured: T/C

COc1cc(N(CCO)CCO)ccc1NC(=O)c1ccccc1
inactive: dose: 12.5 mg/kg/injection, schedule: Q01DX001 (ip), vehicle: carboxymethylcellulose (CMC) 93 % of control | dose: 12.5 mg/kg/injection, schedule: Q01DX009 (ip), vehicle: Klucel (hydroxypropylcellulose) (HPC) 104 % of control | dose: 12.5 mg/kg/injection, schedule: Q04DX003 (ip), vehicle: Klucel (hydroxypropylcellulose) (HPC) 97 % of control | dose: 25.0 mg/kg/injection, schedule: Q01DX001 (ip), vehicle: carboxymethylcellulose (CMC) 98 % of control | dose: 25.0 mg/kg/injection, schedule: Q01DX009 (ip), vehicle: Klucel (hydroxypropylcellulose) (HPC) 104 % of control | dose: 25.0 mg/kg/injection, schedule: Q04DX003 (ip), vehicle: Klucel (hydroxypropylcellulose) (HPC) 95 % of control | dose: 50.0 mg/kg/injection, schedule: Q01DX009 (ip), vehicle: Klucel (hydroxypropylcellulose) (HPC) 97 % of control | dose: 50.0 mg/kg/injection, schedule: Q04DX003 (ip), vehicle: Klucel (hydroxypropylcellulose) (HPC) 97 % of control

Cc1ccc(S(=O)(=O)N/N=C\c2cc(Cl)ccc2O)cc1
inactive: dose: 100.0 mg/kg/injection, schedule: Q01DX009 (ip), vehicle: Klucel (hydroxypropylcellulose) (HPC) 105 % of control | [1] 100 % of control | [2] 100 % of control | [3] 103 % of control | [4] 103 % of control | [5] 100 % of control

CCN1CC1 (tested in a mixture with another compound)
inactive: dose: 1.56 mg/kg/injection, schedule: Q01DX001 (ip), vehicle: Klucel (hydroxypropylcellulose) (HPC) 101 % of control | dose: 3.12 mg/kg/injection, schedule: Q01DX001 (ip), vehicle: Klucel (hydroxypropylcellulose) (HPC) 99 % of control | dose: 6.25 mg/kg/injection, schedule: Q01DX001 (ip), vehicle: Klucel (hydroxypropylcellulose) (HPC) 104 % of control | dose: 25.0 mg/kg/injection, schedule: Q01DX001 (ip), vehicle: other 111 % of control

[CH3][Ge]([CH3])([CH3])[CH2]CCl
inactive: dose: 100.0 mg/kg/injection, schedule: Q04DX002 (ip), vehicle: saline with Tween-80 98 % of control | dose: 200.0 mg/kg/injection, schedule: Q04DX002 (ip), vehicle: saline with Tween-80 91 % of control | dose: 400.0 mg/kg/injection, schedule: Q04DX002 (ip), vehicle: saline with Tween-80 98 % of control

CCCCCCCCCCCC[n+]1cccc2ccccc21
inactive: dose: 0.13 mg/kg/injection, schedule: Q01DX Z (ip), vehicle: carboxymethylcellulose (CMC) 112 % of control | dose: 0.25 mg/kg/injection, schedule: Q01DX Z (ip), vehicle: carboxymethylcellulose (CMC) 96 % of control | dose: 0.25 mg/kg/injection, schedule: Q04DX003 (ip), vehicle: saline 97 % of control | [6] 93 % of control | dose: 0.5 mg/kg/injection, schedule: Q01DX Z (ip), vehicle: carboxymethylcellulose (CMC) 98 % of control | dose: 0.5 mg/kg/injection, schedule: Q04DX003 (ip), vehicle: saline 92 % of control | dose: 0.7 mg/kg/injection, schedule: Q01DX009 (ip), vehicle: saline 92 % of control | [7] 88 % of control | dose: 1.0 mg/kg/injection, schedule: Q01DX015 (ip), vehicle: carboxymethylcellulose (CMC) 108 % of control | dose: 1.0 mg/kg/injection, schedule: Q01DX Z (ip), vehicle: carboxymethylcellulose (CMC) 98 % of control | dose: 1.0 mg/kg/injection, schedule: Q04DX003 (ip), vehicle: saline 108 % of control | dose: 1.4 mg/kg/injection, schedule: Q04DX003 (ip), vehicle: saline 94 % of control | dose: 2.0 mg/kg/injection, schedule: Q01DX015 (ip), vehicle: carboxymethylcellulose (CMC) 106 % of control

O=C(O)c1cccc(F)c1O
inactive: [8] 97 % of control | [9] 97 % of control

Cc1ccc(S(=O)(=O)NCC(=O)NCC(=O)Oc2ccc([N+](=O)[O-])cc2)cc1 (Tos-Gly-Gly-ONp)
inactive: dose: 100.0 mg/kg/injection, schedule: Q04DX003 (ip), vehicle: other 105 % of control | dose: 200.0 mg/kg/injection, schedule: Q04DX003 (ip), vehicle: other 102 % of control | dose: 400.0 mg/kg/injection, schedule: Q04DX003 (ip), vehicle: other 98 % of control

NCCCSc1ccc(Br)cc1
inactive: [10] 102 % of control | [11] 96 % of control | [12] 92 % of control

Nc1nc2nc[nH]c2c(Cl)c1Br
inactive: dose: 100.0 mg/kg/injection, schedule: Q04DX002 (ip), vehicle: Klucel (hydroxypropylcellulose) (HPC) 104 % of control | dose: 200.0 mg/kg/injection, schedule: Q04DX002 (ip), vehicle: Klucel (hydroxypropylcellulose) (HPC) 115 % of control

O=C1NC(CCl)(CCl)CO1
inactive: [6] 94 % of control | [7] 94 % of control | dose: 2.0 mg/kg/injection, schedule: Q01DX001 (ip), vehicle: saline 105 % of control

C[Si](C)(C)Oc1ccc(O[Si](C)(C)C)cc1
inactive: dose: 100.0 mg/kg/injection, schedule: Q01DX009 (ip), vehicle: other 92 % of control | dose: 200.0 mg/kg/injection, schedule: Q01DX009 (ip), vehicle: other 94 % of control | dose: 400.0 mg/kg/injection, schedule: Q01DX009 (ip), vehicle: other 101 % of control

CC[N+](CC)(CC)CCC[n+]1ccc(/C=N\O)cc1
inactive: dose: 25.0 mg/kg/injection, schedule: Q04DX003 (ip), vehicle: saline 100 % of control | dose: 50.0 mg/kg/injection, schedule: Q01DX009 (ip), vehicle: saline 112 % of control | dose: 50.0 mg/kg/injection, schedule: Q04DX003 (ip), vehicle: saline 100 % of control | [13] 102 % of control | [14] 100 % of control and 92 % of control

Cc1ccc(N=Nc2c(C)nc(N)nc2C)c(C)c1
inactive: [10] 98 % of control | [11] 98 % of control | [12] 98 % of control

Cc1[nH]c(=O)[nH]c(=O)c1N=Nc1ccccc1
inactive: dose: 25.0 mg/kg/injection, schedule: Q01DX001 (ip), vehicle: saline with Tween-80 95 % of control | dose: 50.0 mg/kg/injection, schedule: Q01DX001 (ip), vehicle: saline with Tween-80 98 % of control | dose: 100.0 mg/kg/injection, schedule: Q01DX001 (ip), vehicle: saline with Tween-80 95 % of control

CCc1nc(C)ncc1-c1ccc([N+](=O)[O-])cc1O
inactive: [1] 97 % of control | [3] 97 % of control | [5] 91 % of control

O=C(Cl)c1ccc(OC(Cl)(Cl)Cl)cc1
inactive: [1] 109 % of control | [2] 100 % of control | [3] 92 % of control | [4] 95 % of control | [5] 94 % of control

CSc1nc(Cl)cc(Sc2nc(N)nc3nc[nH]c23)n1
inactive: dose: 100.0 mg/kg/injection, schedule: Q01DX Z (ip), vehicle: methylcellulose (MC) 110 % of control

NC(Cc1cc(Br)c(O)c(Br)c1)C(=O)O (centres undefined)
inactive: [8] 97 % of control | [13] 90 % of control | [14] 103 % of control | [9] 97 % of control | dose: 200.0 mg/kg/injection, schedule: Q01DX009 (ip), vehicle: saline 109 % of control | dose: 200.0 mg/kg/injection, schedule: Q04DX003 (ip), vehicle: saline 98 % of control | dose: 400.0 mg/kg/injection, schedule: Q01DX001 (ip), vehicle: saline 91 % of control | dose: 400.0 mg/kg/injection, schedule: Q01DX009 (ip), vehicle: saline 93 % of control | dose: 400.0 mg/kg/injection, schedule: Q04DX003 (ip), vehicle: saline 97 % of control
